From patent publication US20250026778A1 (TIUMBIO CO., LTD., priority 2021, published 2025)

molecular target: T1, his-galectin-3 (Homo sapiens, UniProt P17931); assay: TR-FRET assay (in vitro galectin-3 binding inhibitory activity test); details: Table 1; compound at 20 μM; 60 nM his-galectin-3, 15 nM biotin-ASF; read-out: % Inhibitory activity (at 20 μM)
T1 construct: purchased Abcam
Outline: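 Compound is premixed with his-galectin-3 (60 nM final), then biotin-ASF (15 nM), Tb anti-His antibody (2 nM) and streptavidin-d2 (20 nM) are added. After at least 3.5 hours at RT in HEPES/NaCl buffer with Tween 20 and BSA, TR-FRET is read at 615/665 nm. DMSO serves as the uninhibited control, ASF omission as background.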

T1 sequence (P17931 whole entry): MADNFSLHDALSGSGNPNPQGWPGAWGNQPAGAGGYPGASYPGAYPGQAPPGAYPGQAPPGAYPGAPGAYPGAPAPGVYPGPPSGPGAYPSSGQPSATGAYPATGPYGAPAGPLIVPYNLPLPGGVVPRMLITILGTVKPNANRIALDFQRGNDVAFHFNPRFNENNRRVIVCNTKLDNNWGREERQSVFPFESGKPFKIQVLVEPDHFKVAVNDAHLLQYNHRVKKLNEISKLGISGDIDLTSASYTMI

SMILES | inhibition at 20 µM
OC[C@H]1O[C@@]2(CCCCO2)[C@H](OCc2cccc(C(F)(F)F)c2)[C@@H](n2cc(-c3cc(F)c(F)c(F)c3)nn2)[C@H]1O [Compound A49, (2R,3R,4S,5R,6S)-2-(hydroxymethyl)-5-((3-(trifluoromethyl)benzyl)oxy)-4-(4-(3,4,5-trifluorophenyl)-1H-1,2,3-triazol-1-yl)-1,7-dioxaspiro[5.5]undecan-3-ol] | 25 to 50%
OC[C@H]1O[C@@]2(CCCCO2)[C@H](OCc2ccccn2)[C@@H](n2cc(-c3cc(F)c(F)c(F)c3)nn2)[C@H]1O [Compound A50, (2R,3R,4S,5R,6S)-2-(hydroxymethyl)-5-(pyridin-2-ylmethoxy)-4-(4-(3,4,5-trifluorophenyl)-1H-1,2,3-triazol-1-yl)-1,7-dioxaspiro[5.5]undecan-3-ol] | 25 to 50%
O=C(O[C@@H]1[C@@H](n2cc(-c3cc(F)c(F)c(F)c3)nn2)[C@@H](O)[C@@H](CO)O[C@@]12CCCCO2)c1cccc(F)c1 [Compound A51, (2R,3R,4S,5R,6S)-3-hydroxy-2-(hydroxymethyl)-4-(4-(3,4,5-trifluorophenyl)-1H-1,2,3-triazol-1-yl)-1,7-dioxaspiro[5.5]undecan-5-yl 3-fluorobenzoate] | 25 to 50%
O=C(O[C@@H]1[C@@H](n2cc(-c3cc(F)c(F)c(F)c3)nn2)[C@@H](O)[C@@H](CO)O[C@@]12CCCCO2)c1cccc(C(F)(F)F)c1 [Compound A52, (2R,3R,4S,5R,6S)-3-hydroxy-2-(hydroxymethyl)-4-(4-(3,4,5-trifluorophenyl)-1H-1,2,3-triazol-1-yl)-1,7-dioxaspiro[5.5]undecan-5-yl 3-(trifluoromethyl)benzoate] | < 25%
COc1cccc(C(=O)O[C@@H]2[C@@H](n3cc(-c4cc(F)c(F)c(F)c4)nn3)[C@@H](O)[C@@H](CO)O[C@@]23CCCCO3)c1 [Compound A53, (2R,3R,4S,5R,6S)-3-hydroxy-2-(hydroxymethyl)-4-(4-(3,4,5-trifluorophenyl)-1H-1,2,3-triazol-1-yl)-1,7-dioxaspiro[5.5]undecan-5-yl 3-methoxybenzoate] | 25 to 50%
N[C@@H]1CCO[C@]12O[C@H](CO)[C@H](O)[C@H](n1cc(-c3cc(F)c(F)c(F)c3)nn1)[C@H]2O [Compound A56, (4R,5S,7R,8R,9S,10R)-4-amino-7-(hydroxymethyl)-9-(4-(3,4,5-trifluorophenyl)-1H-1,2,3-triazol-1-yl)-1,6-dioxaspiro[4.5]decane-8,10-diol] | < 25%
OC[C@H]1O[C@@]2(CCCCO2)[C@H](OCc2cccnc2)[C@@H](n2cc(-c3cc(F)c(F)c(F)c3)nn2)[C@H]1O [Compound A58, (2R,3R,4S,5R,6S)-2-(hydroxymethyl)-5-(pyridin-3-ylmethoxy)-4-(4-(3,4,5-trifluorophenyl)-1H-1,2,3-triazol-1-yl)-1,7-dioxaspiro[5.5]undecan-3-ol] | 25 to 50%
O=C(N[C@@H]1CCO[C@]12O[C@H](CO)[C@H](O)[C@H](n1cc(-c3cc(F)c(F)c(F)c3)nn1)[C@H]2O)c1cccc(F)c1 [Compound A60, N-((4R,5S,7R,8R,9S,10R)-8,10-dihydroxy-7-(hydroxymethyl)-9-(4-(3,4,5-trifluorophenyl)-1H-1,2,3-triazol-1-yl)-1,6-dioxaspiro[4.5]decan-4-yl)-3-fluorobenzamide] | < 25%
OC[C@H]1O[C@]2(OCC[C@H]2NCc2cccc(F)c2)[C@H](O)[C@@H](n2cc(-c3cc(F)c(F)c(F)c3)nn2)[C@H]1O [Compound A62, (4R,5S,7R,8R,9S,10R)-4-((3-fluorobenzyl)amino)-7-(hydroxymethyl)-9-(4-(3,4,5-trifluorophenyl)-1H-1,2,3-triazol-1-yl)-1,6-dioxaspiro[4.5]decane-8,10-diol] | 50 to 75%
OC[C@H]1O[C@]2(OCC[C@H]2NCc2c(O)ccc(F)c2F)[C@H](O)[C@@H](n2cc(-c3cc(F)c(F)c(F)c3)nn2)[C@H]1O [Compound A63, (4R,5S,7R,8R,9S,10R)-4-((2,3-difluoro-6-hydroxybenzyl)amino)-7-(hydroxymethyl)-9-(4-(3,4,5-trifluorophenyl)-1H-1,2,3-triazol-1-yl)-1,6-dioxaspiro[4.5]decane-8,10-diol] | < 25%

same assay, conditions: read-out: % Inhibitory activity (at 20 μM), Table 1; compound at 20 μM; 60 nM his-galectin-3, 15 nM biotin-ASF

SMILES | inhibition at 20 µM
O=C(O)CO[C@@H]1[C@@H](n2cc(-c3cc(F)c(F)c(F)c3)nn2)[C@@H](O)[C@@H](CO)O[C@@]12CCCCO2 [Compound A54, 2-(((2R,3R,4S,5R,6S)-3-hydroxy-2-(hydroxymethyl)-4-(4-(3,4,5-trifluorophenyl)-1H-1,2,3-triazol-1-yl)-1,7-dioxaspiro[5.5]undecan-5-yl)oxy)acetic acid] | 25 to 50%
CC(O[C@@H]1[C@@H](n2cc(-c3cc(F)c(F)c(F)c3)nn2)[C@@H](O)[C@@H](CO)O[C@@]12CCCCO2)C(=O)O (stereo partly drawn) [Compound A55, 2-(((2R,3R,4S,5R,6S)-3-hydroxy-2-(hydroxymethyl)-4-(4-(3,4,5-trifluorophenyl)-1H-1,2,3-triazol-1-yl)-1,7-dioxaspiro[5.5]undecan-5-yl)oxy)propanoic acid] | 50 to 75%
O=C(O[C@@H]1[C@@H](n2cc(-c3cc(F)c(F)c(F)c3)nn2)[C@@H](O)[C@@H](CO)O[C@@]12CCCCO2)c1ccccn1 [Compound A57] | 50 to 75%
Cc1ccc(S(=O)(=O)O[C@@H]2[C@@H](n3cc(-c4cc(F)c(F)c(F)c4)nn3)[C@@H](O)[C@@H](CO)O[C@@]23CCCO3)cc1 [Compound A59, (5S,7R,8R,9S,10R)-8-hydroxy-7-(hydroxymethyl)-9-(4-(3,4,5-trifluorophenyl)-1H-1,2,3-triazol-1-yl)-1,6-dioxaspiro[4.5]decan-10-yl 4-methylbenzenesulfonate] | 25 to 50%
O=C(O[C@@H]1[C@@H](n2cc(-c3cc(F)c(F)c(F)c3)nn2)[C@@H](O)[C@@H](CO)O[C@@]12CCCCO2)c1cccnc1 [Compound A61, (2R,3R,4S,5R,6S)-3-hydroxy-2-(hydroxymethyl)-4-(4-(3,4,5-trifluorophenyl)-1H-1,2,3-triazol-1-yl)-1,7-dioxaspiro[5.5]undecan-5-yl nicotinate] | 25 to 50%
OC[C@H]1O[C@@]2(CCCO2)[C@H](OCc2cccc(Cl)c2)[C@@H](n2cc(-c3cc(F)c(F)c(F)c3)nn2)[C@H]1O [Compound A64, (5S,7R,8R,9S,10R)-10-((3-chlorobenzyl)oxy)-7-(hydroxymethyl)-9-(4-(3,4,5-trifluorophenyl)-1H-1,2,3-triazol-1-yl)-1,6-dioxaspiro[4.5]decan-8-ol] | < 25%
OC[C@H]1O[C@@]2(CCCO2)[C@H](OCc2cccc(F)c2F)[C@@H](n2cc(-c3cc(F)c(F)c(F)c3)nn2)[C@H]1O [Compound A65, (5S,7R,8R,9S,10R)-10-((2,3-difluorobenzyl)oxy)-7-(hydroxymethyl)-9-(4-(3,4,5-trifluorophenyl)-1H-1,2,3-triazol-1-yl)-1,6-dioxaspiro[4.5]decan-8-ol] | < 25%
CC(O[C@@H]1[C@@H](n2cc(-c3cc(F)c(F)c(F)c3)nn2)[C@@H](O)[C@@H](CO)O[C@@]12CCCO2)C(=O)O (stereo partly drawn) [Compound A66, 2-(((5S,7R,8R,9S,10R)-8-hydroxy-7-(hydroxymethyl)-9-(4-(3,4,5-trifluorophenyl)-1H-1,2,3-triazol-1-yl)-1,6-dioxaspiro[4.5]decan-10-yl)oxy)propanoic acid] | 25 to 50%

same assay, conditions: read-out: % Inhibitory activity (at 20 μM), Table 3, found values; compound at 20 μM; 60 nM his-galectin-3, 15 nM biotin-ASF

SMILES | inhibition at 20 µM
CC(O[C@@H]1[C@@H](n2cc(-c3cc(F)c(F)c(F)c3)nn2)[C@@H](O)[C@@H](CO)O[C@@]12CCCCO2)C(=O)O (stereo partly drawn) [Compound A55, 2-(((2R,3R,4S,5R,6S)-3-hydroxy-2-(hydroxymethyl)-4-(4-(3,4,5-trifluorophenyl)-1H-1,2,3-triazol-1-yl)-1,7-dioxaspiro[5.5]undecan-5-yl)oxy)propanoic acid] | 60%
OC[C@H]1O[C@@]2(CCCO2)[C@H](OCc2cccc(F)c2F)[C@@H](n2cc(-c3cc(F)c(F)c(F)c3)nn2)[C@H]1O [Compound A65, (5S,7R,8R,9S,10R)-10-((2,3-difluorobenzyl)oxy)-7-(hydroxymethyl)-9-(4-(3,4,5-trifluorophenyl)-1H-1,2,3-triazol-1-yl)-1,6-dioxaspiro[4.5]decan-8-ol] | 17.3%
